What was measured:
[1] = test system: delayed type hypersensitivity; assay: Mouse Delayed Type Hypersensitivity Reaction Suppression Test-2 (donor spleen cells, subcutaneous administration); type: in vivo; conditions: C57BL/6 spleen cells; subcutaneous everyday from day of sensitization, totally 8 days; BALB/c
Description: BALB/c mice (male, 7 weeks old) were used, and each group consisted of 4-5 mice. Spleen cells (1×10^7 ) obtained from a donor mouse (C57BL/6) was subcutaneously administered to sensitize the mice. On Day 7 from the sensitization, the spleen cells (5×10^6) of the donor were subcutaneously administered on the right hing leg and spleen cells (5×10^6) obtained from a mouse of the same line as the recipient mice were subcutaneously administered on the left footpad. Twenty four hours later, the thicknesses of the right and left footpads were measured with a dial thickness gage, and the difference in thicknesses of the right and left footpads before the induction of the reaction and 24 hours after the induction of the reaction was employed as the index of the degree of the reaction.
The test compound was dissolved in 10% DMSO-water and was subcutaneously administered everyday from the day of sensitization to the day of induction of the reaction, totally 8 days. In the control group, 10% DMSO-water alone was administered in the same manner. The volume of administration was 10 ml/kg in both study groups and in the control group. Delayed Type Hypersensitivity Reaction=(thickness of right foodpad after induction-thickness of right footpad before induction)-(thickness of […] before induction) [formula]
wherein C means delayed type hypersensitivity reaction of the group to which the test compound was administered and D means the delayed type hypersensitivity reaction of the group to which vehicle was administered.

δ-opioid receptor [2] = target: T1, δ-opioid receptor (Mus musculus, UniProt P32300); assay: δ-opioid antagonist activity against DPDPE in mouse vas deferens (MVD); conditions: 20 min; for Ratio of IC50 Values: DPDPE IC50 with/without 100 nM test compound; for Kb: against DPDPE, test compound 100 nM, read-out: Ke
T1 construct: from tissue; host or cells: vas deferens of male ddy mice
T1 sequence (P32300 whole entry): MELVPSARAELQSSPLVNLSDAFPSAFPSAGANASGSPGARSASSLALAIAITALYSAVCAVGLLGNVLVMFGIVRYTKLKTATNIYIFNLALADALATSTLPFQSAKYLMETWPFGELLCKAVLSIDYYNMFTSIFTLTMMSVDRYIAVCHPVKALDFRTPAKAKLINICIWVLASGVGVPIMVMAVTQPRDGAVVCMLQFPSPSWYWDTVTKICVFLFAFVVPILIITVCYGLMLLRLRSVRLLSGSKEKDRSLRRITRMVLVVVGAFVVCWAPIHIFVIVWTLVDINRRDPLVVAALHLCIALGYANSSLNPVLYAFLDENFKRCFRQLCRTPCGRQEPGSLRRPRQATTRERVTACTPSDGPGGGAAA
Protocol: Using mouse vas deferens (MVD), the antagonist activity against DPDPE which is a δ-opioid agonist was checked.
(§1) In this experiment, ddy male mice were used. In a Magnus' tube which is filled with Krebes-Henseleit solution (NaCl […]; KCl 4.7 mM; CaCl2 2.5 mM; KH2 PO4 1.1 mM; NaHCO3 25 mM; glucose 11 mM) kept at 37° C., and into which an atmosphere consisting of 5% carbon dioxide and 95% oxygen was flown, vas deferens taken from the animals was suspended. Electric stimulation was applied through ring-shaped platinum electrodes mounted on the upper and lower portions of the tube at a frequency of 0.1 Hz and 5.0 mS duration. The contraction of the tissue was recorded on polygraph using isometric transducer.
(§2) Then 100 nM of the test compound was added. Twenty minutes later, DPDPE was begun to be added cumulatively. The ratio of IC50 values in the presence and absence of the test compound, Ke value (the molar concentration of the test compound necessary for translating the dose-effect curve to the curve of twice dose) and pA2 value were determined. The pA2 value was determined by the method of Shild et al (Shild, H. O., Br. J. Pharmac. Chamotehr., 4, 277 (1949)). That is, the logarithm of the test compound (log[test compound]) was plotted along the abscissa and the logarithm of the value obtained by subtracting 1 from the ratio of IC50 values was plotted in the presence and absence of the test compound [log(dose ratio-1)] along the ordinate. The pA2 value was determined from the value on the abscissa when the value on the ordinate of the obtained line is 0.

κ-opioid receptor = target: T2, κ-opioid receptor (Cavia porcellus, UniProt P41144); assay: κ-opioid antagonist activity against U-50488H in guinea pig ileum (GPI); conditions: 20 min; for Ratio of IC50 Values: U-50488H IC50 with/without 100 nM test compound; for Kb: against U-50488H, test compound 100 nM, read-out: Ke
T2 construct: from tissue; host or cells: ileum longitudinal muscle of male Hartley guinea pigs
T2 sequence (P41144 whole entry): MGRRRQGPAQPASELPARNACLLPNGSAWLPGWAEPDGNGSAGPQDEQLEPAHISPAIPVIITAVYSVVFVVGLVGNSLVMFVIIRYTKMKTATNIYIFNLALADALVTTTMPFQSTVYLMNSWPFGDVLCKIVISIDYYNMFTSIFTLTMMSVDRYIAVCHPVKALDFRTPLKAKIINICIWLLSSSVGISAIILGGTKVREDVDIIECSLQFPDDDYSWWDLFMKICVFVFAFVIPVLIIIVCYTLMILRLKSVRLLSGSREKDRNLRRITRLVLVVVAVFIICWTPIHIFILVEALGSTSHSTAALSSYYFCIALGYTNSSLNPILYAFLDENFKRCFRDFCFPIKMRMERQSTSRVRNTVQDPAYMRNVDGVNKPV
Protocol: Using guinea pig ileum (GPI), antagonist activities against U-50488H which is a κ-opioid agonist was determined.
Hartley male guinea pigs were used. After killing the guinea pigs by clubbing, ilea were taken. The inside of the ilea was washed with a nutrient liquid and only longitudinal muscles were peeled off. Using the thus obtained longitudinal muscles, the tests were carried out using the same apparatus as used in the experiment employing MVD.
First, U-50488H which is a κ-agonist was cumulatively added and IC50 value was determined. Thereafter, the muscle was well washed with the nutrient liquid. After the contraction reaction became stable, 100 nM of a test compound was added. From 20 minutes after, U-50488H was cumulatively added and the ratio of IC50 values, Ke value and pA2 value were determined in the same manner as in the experiment employing MVD.

[3] = test system: Cerebral cortex nerve cells; assay: Brain cell-protecting action, MTT method; type: cell-based, rat; conditions: 10 μM; for brain cell-protecting action (in words): MTT; for Ratio of Absorbances: study group / control group, 570 nm, 3 days culture; for brain cell-protecting activity relative to nor-BNI (in words): vs nor-BNI
Protocol: The brain cell-protecting action was examined by MTT [3-(4,5-dimethylthiazol-2-yl)-2,5-diphenyltetrazolium bromide] method. MTT yields a dark blue formazan compound by mitochondria in living cells. This compound was dissolved in isopropanol and absorbance at 570 nm was measured, thereby measuring the number of living cells.
Cerebral cortex nerve cells of fetal rats of 17 days old were placed in wells of a 96-well plate at a population density of 1×10^5 cells/cm^2. Then 10 μM of a test compound was added and the cells were cultured in 200 μl of mixed medium of D-MEM/F.12 (1:1) for 3 days (37° C., 5%CO2). In a control group, the medium alone was added Then […] of MTT solution in PBS (6mg/ml) was added and the mixture was allowed to react for 3 hours (37° C., 5% CO2). After removing the culture medium, 100 μl of isopropanol was added and the absorbance was measured.
The ratio of the absorbances of the study group and the control group was employed as an index of brain cell-protecting action.

δ-opioid receptor [4] = target: T1, δ-opioid receptor; assay: Change in δ-antagonist activity against DPDPE with time in mouse vas deferens (MVD); conditions: for Ratio of IC50 Values / Kb: 173 and NTI at 20 nM, 174 and 5'-NTII at 100 nM; for Kb: read-out: Ke; for change of antagonist activity with time (in words): 15 min to 1 hour; for activity at 1 hour relative to 5'-NTII: vs 5'-NTII
Protocol: as §1, §2
Using MVD, the antagonist activities of compounds 173 and 174 against DPDPE were determined. The ratio of IC50 values, Ke values and pA2 values at 15 minutes, 30 minutes and 1 hour from the addition of the test compounds were calculated. Since the concentrations of the test compounds are different, the reciprocals of Ke values were plotted in FIGS. 1 and 2.

Compound | Ratio of IC50 Values (δ-opioid receptor [2]) | Kb (δ-opioid receptor [2]) | Ratio of IC50 Values (κ-opioid receptor) | Kb (κ-opioid receptor) | brain cell-protecting action (in words) [3] | Ratio of Absorbances [3] | further results
CCCOC(=O)c1ccc2c3c([nH]c2c1)[C@@H]1Oc2c(O)ccc4c2[C@@]12CCN(CC1CC1)[C@H](C4)[C@]2(O)C3 [Compound 393, 17-cyclopropylmethyl-6,7-didehydro-4,5α-epoxy-3,14β-dihydroxy-6'-propoxycarbonyl-6,7-2',3'-indolomorphinan] | 12.3 | 8.85 nM |  |  |  |  | % Suppression [1]: 33%
CN(C)Cc1ccc2[nH]c3c(c2c1)C[C@@]1(O)[C@H]2Cc4ccc(O)c5c4[C@@]1(CCN2CC1CC1)[C@H]3O5 [Compound 10, 17-cyclopropylmethyl-6,7-didehydro-4,5α-epoxy-3,14β-dihydroxy-5'-(N,N-dimethylamino)methyl-6,7-2',3'-indolomorphinan] | 11.4 | 9.62 nM | 19.4 | 9.67 nM | Clear activities | 7.58 | 
Oc1ccc2c3c1O[C@H]1c4[nH]c5cc(N=C=S)ccc5c4C[C@@]4(O)[C@@H](C2)N(CC2CC2)CC[C@]314 [Compound 174, 17-cyclopropylmethyl-6,7-didehydro-4,5α-epoxy-3,14β-dihydroxy-6'-isothiocyanato-6,7-2',3'-indolomorphinan] |  |  |  |  |  |  | Ratio of IC50 Values (δ-opioid receptor [4]; 15 min): 25.7; Kb (δ-opioid receptor [4]; 15 min): 4.05 nM; change of antagonist activity with time (in words) (δ-opioid receptor [4]): increased with time; Ratio of IC50 Values (δ-opioid receptor [4]; 30 min): 47.6; Kb (δ-opioid receptor [4]; 30 min): 2.15 nM; Ratio of IC50 Values (δ-opioid receptor [4]; 60 min): 58.6; Kb (δ-opioid receptor [4]; 60 min): 1.74 nM; activity at 1 hour relative to 5'-NTII (δ-opioid receptor [4]; 1 hour): about 7 times
O=C(NCC1CC1)c1ccc2c3c([nH]c2c1)[C@@H]1Oc2c(O)ccc4c2[C@@]12CCN(CC1CC1)[C@H](C4)[C@]2(O)C3 [Compound 47, 17-cyclopropylmethyl-6,7-didehydro-4,5α-epoxy-3,14β-dihydroxy-6'-(N-cyclopropylmethylcarbamoyl)-6,7-2',3'-indolomorphinan] | 13.0 | 8.33 nM | 3.11 | 47.4 nM |  |  | 
Oc1ccc2c3c1O[C@H]1c4[nH]c5ccc(CNCC6CC6)cc5c4C[C@@]4(O)[C@@H](C2)N(CC2CC2)CC[C@]314 [Compound 180, 17-cyclopropylmethyl-6,7-didehydro-4,5α-epoxy-3,14β-dihydroxy-5'-(N-cyclopropylmethylamino)methyl-6,7-2',3'-indolomorphinan] | 15.2 | 7.04 nM |  |  | Clear activities | 8.73 | brain cell-protecting activity relative to nor-BNI (in words) [3]: higher than that of nor-BNI
CN(C)CCc1ccc2[nH]c3c(c2c1)C[C@@]1(O)[C@H]2Cc4ccc(O)c5c4[C@@]1(CCN2CC1CC1)[C@H]3O5 [Compound 9, 17-cyclopropylmethyl-6,7-didehydro-4,5α-epoxy-3,14-dihydroxy-5'-[2-(N,N-dimethylamino)ethyl]-6,7-2',3'-indolomorphinan] | 25.6 | 4.07 nM | 99.0 | 4.07 nM | Clear activities | 8.27 | brain cell-protecting activity relative to nor-BNI (in words) [3]: higher than that of nor-BNI
C[S+]([O-])c1cccc2c3c([nH]c12)[C@@H]1Oc2c(O)ccc4c2[C@@]12CCN(CC1CC1)[C@H](C4)[C@]2(O)C3 (single isomer, unassigned) [Compound 591, 17-cyclopropylmethyl-6,7-didehydro-4,5α-epoxy-3,14β-dihydroxy-7'-methylsulfinyl-6,7-2',3'-indolomorphinan] |  |  |  |  |  |  | % Suppression [1]: 16%
O=S(=O)(NCC1CC1)c1ccc2c3c([nH]c2c1)[C@@H]1Oc2c(O)ccc4c2[C@@]12CCN(CC1CC1)[C@H](C4)[C@]2(O)C3 [Compound 45, 17-cyclopropylmethyl-6,7-didehydro-4,5α-epoxy-3,14β-dihydroxy-6'-(N-cyclopropylmethylsulfamoyl)-6,7-2',3'-indolomorphinan] | 7.44 | 15.5 nM | 3.22 | 45.1 nM |  |  | 
O=C(NCC1CC1)c1ccc2[nH]c3c(c2c1)C[C@@]1(O)[C@H]2Cc4ccc(O)c5c4[C@@]1(CCN2CC1CC1)[C@H]3O5 [Compound 7, 17-cyclopropylmethyl-6,7-didehydro-4,5α-epoxy-3,14β-dihydroxy-5'-(N-cyclopropylmethylcarbamoyl)-6,7-2',3'-indolomorphinan] | 33.2 | 3.11 nM | 22.8 | 4.59 nM | Clear activities | 5.31 | 
C[S+]([O-])c1cccc2c3c([nH]c12)[C@@H]1Oc2c(O)ccc4c2[C@@]12CCN(CC1CC1)[C@H](C4)[C@]2(O)C3 (single isomer, unassigned) [Compound 592, 17-cyclopropylmethyl-6,7-didehydro-4,5α-epoxy-3,14β-dihydroxy-7'-methylsulfinyl-6,7-2',3'-indolomorphinan] |  |  |  |  |  |  | % Suppression [1]: 20%
Oc1ccc2c3c1O[C@H]1c4[nH]c5c(N=C=S)cccc5c4C[C@@]4(O)[C@@H](C2)N(CC2CC2)CC[C@]314 [Compound 173, 17-cyclopropylmethyl-6,7-didehydro-4,5α-epoxy-3,14β-dihydroxy-7'-isothiocyanato-6,7-2',3'-indolomorphinan] |  |  |  |  |  |  | Ratio of IC50 Values (δ-opioid receptor [4]; 15 min): 105; Kb (δ-opioid receptor [4]; 15 min): 0.19 nM; change of antagonist activity with time (in words) (δ-opioid receptor [4]): increased with time; Ratio of IC50 Values (δ-opioid receptor [4]; 30 min): 253; Kb (δ-opioid receptor [4]; 30 min): 0.08 nM; Ratio of IC50 Values (δ-opioid receptor [4]; 60 min): 306; Kb (δ-opioid receptor [4]; 60 min): 0.07 nM; activity at 1 hour relative to 5'-NTII (δ-opioid receptor [4]; 1 hour): about 170 times; activity at 1 hour relative to NTI (δ-opioid receptor [4]; 1 hour, vs NTI): about 3.5 times; activity relative to compound 174 (in words) (δ-opioid receptor [4]; vs compound 174): inferior to that of compound 174
